# Measured values from patent US20150367004A1, “COMPOSITIONS AND METHODS OF DIAGNOSING OCULAR DISEASES” (MOLECULAR TARGETING TECHNOLOGIES, INC., priority 2012, published 2015).
# System: corneal surface after BAC-induced toxicity
# Assay: In vivo fluorescence imaging of the cornea after BAC-induced corneal toxicity, compared with lissamine green staining
# Set-up: species or system rat
# Conditions: 0.1% and 0.2% BAC twice daily for 7 days
# Method: Adult Wistar rats were given topical instillation of 0.2, 0.1 and 0.02% BAC in 0.9% balanced salt solution (BSS) twice daily for 7 days. External ocular examination was performed and lissamine green staining was used to evaluate the corneal damage prior to and after experiments. One hour after topical Zn-DPA 480 administration, convention light and fluorescence images were taken on animals.
# There was no remarkable change on the cornea after administration of BSS. Results are illustrated in FIG. 3.
compound,measurement,value
CN(C)c1ccc(C(=C2C=CC(=[N+](C)C)C=C2)c2c(O)c(S(=O)(=O)[O-])cc3cc(S(=O)(=O)[O-])ccc23)cc1.[Na+] [lissamine green],Corneal staining,positive lissamine green staining
